Results: the supplement of paper PMC10307832

Assays:
Assay in all cases: relative viability (nuclei count vs DMSO), 5 days (fraction); higher = more cells survive
[1] = test system: 201T
Procedure, shortened: (§1)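 Relative viability equals treated-well nuclei counts divided by vehicle-well nuclei counts. Counts came from 4× images of lung cancer cell lines grown in 1536-well plates for 5 days after pin-tool dosing on the day after seeding. Dosing used one drug alone or a fixed anchor-drug dose plus five library-drug doses (not always all listed) in √10 steps, and values are medians of duplicate plates.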

[2] = test system: ChaGo-K-1
Procedure, shortened: as §1

[3] = test system: HCC-78
Procedure, shortened: as §1

[4] = test system: HCC-827
Procedure, shortened: as §1

[5] = test system: LCLC-103H
Procedure, shortened: as §1

[6] = test system: LCLC-97TM1
Procedure, shortened: as §1

[7] = test system: LOU-NH91
Procedure, shortened: as §1

[8] = test system: NCI-H1437
Procedure, shortened: as §1

[9] = test system: NCI-H1755
Procedure, shortened: as §1

[10] = test system: NCI-H2023
Procedure, shortened: as §1

[11] = test system: NCI-H2085
Procedure, shortened: as §1

[12] = test system: NCI-H2126
Procedure, shortened: as §1

[13] = test system: NCI-H2170
Procedure, shortened: as §1

[14] = test system: NCI-H2342
Procedure, shortened: as §1

[15] = test system: NCI-H2405
Procedure, shortened: as §1

[16] = test system: NCI-H441
Procedure, shortened: as §1

[17] = test system: NCI-H596
Procedure, shortened: as §1

[18] = test system: NCI-H650
Procedure, shortened: as §1

[19] = test system: NCI-H727
Procedure, shortened: as §1

[20] = test system: RERF-LC-KJ
Procedure, shortened: as §1

[21] = test system: SK-MES-1
Procedure, shortened: as §1

For `COCC1(CO)C(=O)C2CCN1CC2` (configuration not stated) [PRIMA-1MET] + O=C(CCCCCCC(=O)Nc1ccccc1)NO [Vorinostat] (partner 1 µM), the relative viability ([1]; first compound 0.2 µM) was 1.15, the relative viability ([1]; first compound 0.6325 µM) was 0.676 and the relative viability ([1]; first compound 2 µM) was 0.797. It also gave a relative viability ([1]; first compound 6.325 µM) of 0.991, a relative viability ([1]; first compound 20 µM) of 0.98 and a relative viability ([2]; first compound 0.2 µM) of 0.858. It also gave a relative viability ([2]; first compound 0.6325 µM) of 0.431, a relative viability ([2]; first compound 2 µM) of 0.627 and a relative viability ([2]; first compound 6.325 µM) of 0.743. It also gave a relative viability ([2]; first compound 20 µM) of 0.709, a relative viability ([3]; first compound 0.2 µM) of 0.624 and a relative viability ([3]; first compound 0.6325 µM) of 0.407. It also gave a relative viability ([3]; first compound 2 µM) of 0.392, a relative viability ([3]; first compound 6.325 µM) of 0.403 and a relative viability ([3]; first compound 20 µM) of 0.102. It also gave a relative viability ([4]; first compound 0.2 µM) of 0.939, a relative viability ([4]; first compound 0.6325 µM) of 0.173 and a relative viability ([4]; first compound 2 µM) of 0.661. The relative viability ([4]; first compound 6.325 µM) was 0.816, the relative viability ([4]; first compound 20 µM) was 0.855 and the relative viability ([5]; first compound 0.2 µM) was 0.76. The relative viability ([5]; first compound 0.6325 µM) was 0.64, the relative viability ([5]; first compound 2 µM) was 0.558 and the relative viability ([5]; first compound 6.325 µM) was 0.771. For the same compound, the relative viability ([5]; first compound 20 µM) was 0.793, the relative viability ([6]; first compound 0.2 µM) was 0.547 and the relative viability ([6]; first compound 0.6325 µM) was 0.675. The relative viability ([6]; first compound 2 µM) was 0.747, the relative viability ([6]; first compound 6.325 µM) was 0.791 and the relative viability ([6]; first compound 20 µM) was 0.464. The relative viability ([7]; first compound 0.2 µM) was 0.987, the relative viability ([7]; first compound 0.6325 µM) was 0.878 and the relative viability ([7]; first compound 2 µM) was 0.759. The relative viability ([7]; first compound 6.325 µM) was 0.863, the relative viability ([7]; first compound 20 µM) was 0.296 and the relative viability ([8]; first compound 0.2 µM) was 0.951. It also gave a relative viability ([8]; first compound 0.6325 µM) of 0.685, a relative viability ([8]; first compound 2 µM) of 0.792 and a relative viability ([8]; first compound 6.325 µM) of 0.939. For the same compound, the relative viability ([8]; first compound 20 µM) was 0.776, the relative viability ([9]; first compound 0.2 µM) was 0.944 and the relative viability ([9]; first compound 0.6325 µM) was 0.765. It also gave a relative viability ([9]; first compound 2 µM) of 0.721, a relative viability ([9]; first compound 6.325 µM) of 0.748 and a relative viability ([9]; first compound 20 µM) of 0.663. The relative viability ([10]; first compound 0.2 µM) was 1.06, the relative viability ([10]; first compound 0.6325 µM) was 0.474 and the relative viability ([10]; first compound 2 µM) was 0.442. For the same compound, the relative viability ([10]; first compound 6.325 µM) was 0.734, the relative viability ([10]; first compound 20 µM) was 0.254 and the relative viability ([11]; first compound 0.2 µM) was 1.06. It also gave a relative viability ([11]; first compound 0.6325 µM) of 0.776, a relative viability ([11]; first compound 2 µM) of 0.706 and a relative viability ([11]; first compound 6.325 µM) of 0.798. It also gave a relative viability ([11]; first compound 20 µM) of 0.154, a relative viability ([12]; first compound 0.2 µM) of 0.784 and a relative viability ([12]; first compound 0.6325 µM) of 0.796. It also gave a relative viability ([12]; first compound 2 µM) of 0.606, a relative viability ([12]; first compound 6.325 µM) of 0.765 and a relative viability ([12]; first compound 20 µM) of 0.788. It also gave a relative viability ([13]; first compound 0.2 µM) of 1.05, a relative viability ([13]; first compound 0.6325 µM) of 0.801 and a relative viability ([13]; first compound 2 µM) of 0.721. It also gave a relative viability ([13]; first compound 6.325 µM) of 0.795, a relative viability ([13]; first compound 20 µM) of 0.774 and a relative viability ([14]; first compound 0.2 µM) of 0.694. The relative viability ([14]; first compound 0.6325 µM) was 0.913, the relative viability ([14]; first compound 6.325 µM) was 0.748 and the relative viability ([14]; first compound 20 µM) was 0.607. It also gave a relative viability ([15]; first compound 0.2 µM) of 1.03, a relative viability ([15]; first compound 0.6325 µM) of 0.945 and a relative viability ([15]; first compound 6.325 µM) of 0.934. The relative viability ([15]; first compound 20 µM) was 0.106, the relative viability ([16]; first compound 0.2 µM) was 0.689 and the relative viability ([16]; first compound 0.6325 µM) was 0.6. The relative viability ([16]; first compound 2 µM) was 0.887, the relative viability ([16]; first compound 6.325 µM) was 0.96 and the relative viability ([16]; first compound 20 µM) was 0.553. It also gave a relative viability ([17]; first compound 0.2 µM) of 0.694, a relative viability ([17]; first compound 0.6325 µM) of 0.589 and a relative viability ([17]; first compound 2 µM) of 0.421. For the same compound, the relative viability ([17]; first compound 6.325 µM) was 0.732, the relative viability ([17]; first compound 20 µM) was 0.147 and the relative viability ([18]; first compound 0.2 µM) was 0.54. The relative viability ([18]; first compound 0.6325 µM) was 0.361, the relative viability ([18]; first compound 2 µM) was 0.442 and the relative viability ([18]; first compound 6.325 µM) was 0.311. The relative viability ([18]; first compound 20 µM) was 0.0619, the relative viability ([19]; first compound 0.2 µM) was 0.732 and the relative viability ([19]; first compound 0.6325 µM) was 0.394. The relative viability ([19]; first compound 6.325 µM) was 1.17, the relative viability ([19]; first compound 20 µM) was 0.689 and the relative viability ([20]; first compound 0.2 µM) was 0.817. The relative viability ([20]; first compound 0.6325 µM) was 0.507, the relative viability ([20]; first compound 2 µM) was 0.589 and the relative viability ([20]; first compound 6.325 µM) was 0.911. It also gave a relative viability ([20]; first compound 20 µM) of 0.659, a relative viability ([21]; first compound 0.2 µM) of 1.26 and a relative viability ([21]; first compound 0.6325 µM) of 1.08. It also gave a relative viability ([21]; first compound 2 µM) of 1.05, a relative viability ([21]; first compound 6.325 µM) of 1.24 and a relative viability ([21]; first compound 20 µM) of 1.18.
